Experimental data reported in patent publication US20250089717A1, “FUNGICIDAL HALOMETHYL KETONES, HYDRATES AND ENOL ETHERS AND THEIR MIXTURES” (FMC CORPORATION, priority 2023, published 2025).
Values joined by “and” are separate entries in the source; they are usually repeats but may differ in a detail not shown here. Equal values may be shown once.

These compounds were tested on Phakopsora pachyrhizi (assay: Test A: preventive spray on soybean seedlings, Asian soybean rust, visual disease rating). Details: rate 10 ppm.
Format: in vivo
From the text: General protocol for preparing test suspensions for Test A: the test compounds were first dissolved in acetone in an amount equal to 3% of the final volume and then suspended at the desired concentration (in ppm) in acetone and purified water (50/50 mix by volume) containing 250 ppm of the surfactant PEG400 (polyhydric alcohol esters). The resulting test suspensions were then used in Test A.
The test solution was sprayed to the point of run-off on soybean seedlings. The following day the seedlings were inoculated with a spore suspension of Phakopsora pachyrhizi (the causal agent of Asian soybean rust) and incubated in a saturated atmosphere at 22° C. for 24 h and then moved to a growth chamber at 22° C. for 8 days, after which time visual disease ratings were made.
A rating of 100 indicates 100% disease control and a rating of 0 indicates no disease control (relative to the controls).

With `CCO/C(=C\Oc1ccc(Cn2cc(COC(=O)CC#N)nn2)cc1)C(F)(F)F` [Compound 9] as the compound, how does the “Test A rating (100 = 100% disease control, 0 = no disease control relative to the controls)” value read?
Its value is 0%.

`CCO/C(=C\Oc1ccc(Cn2cc(COC(=O)COC)nn2)cc1)C(F)(F)F` [Compound 10] was tested. Which “Test A rating (100 = 100% disease control, 0 = no disease control relative to the controls)” value did it give?
The value was 0%.

For `CCO/C(=C\Oc1ccc(Cn2cc(COC(=O)CC(F)(F)F)nn2)cc1)C(F)(F)F` [Compound 11], which “Test A rating (100 = 100% disease control, 0 = no disease control relative to the controls)” value is on record?
The value was 0%.

Which “Test A rating (100 = 100% disease control, 0 = no disease control relative to the controls)” value does the source give for `CCO/C(=C\Oc1ccc(Cn2cc(COC(=O)C3CCCC3)nn2)cc1)C(F)(F)F` [Compound 12] here?
Its value is 79%.

With `CCO/C(=C\Oc1ccc(Cn2cc(COC(C)=O)nn2)cc1)C(F)(F)F` [Compound 37] as the compound, how does the “Test A rating (100 = 100% disease control, 0 = no disease control relative to the controls)” value read?
The value was 100%.

`C#CCOCc1cn(Cc2ccc(O/C=C(\OCC)C(F)(F)F)cc2)nn1` [Compound 38] was tested. Which “Test A rating (100 = 100% disease control, 0 = no disease control relative to the controls)” value did it give?
The value was 78% and 88%.

With `CCO/C(=C\Oc1ccc(Cn2cc(COC(=O)C(=O)OC)cn2)cc1)C(F)(F)F` [Compound 48, 1-[[1-[[4-[[(1Z)-2-ethoxy-3,3,3-trifluoro-1-propen-1-yl]oxy]phenyl]methyl]-1H-pyrazol-4-yl]methyl]2-methyl ethanedioate] as the compound, how does the “Test A rating (100 = 100% disease control, 0 = no disease control relative to the controls)” value read?
Its value is 100%.

With `CCO/C(=C\Oc1ccc(Cn2cc(COC(=O)OC)cn2)cc1)C(F)(F)F` [Compound 52, 1-[[4-[[(1Z)-2-ethoxy-3,3,3-trifluoro-1-propen-1-yl]oxy]phenyl]methyl]-1H-pyrazol-4-yl]methyl methyl carbonate] as the compound, how does the “Test A rating (100 = 100% disease control, 0 = no disease control relative to the controls)” value read?
Its value is 100%.

`C=CCON(CC)C(=O)c1cnn(Cc2ccc(O/C=C(\OCC)C(F)(F)F)cc2)c1` [Compound 55, ethyl 1-[[4-[[(1Z)-2-ethoxy-3,3,3-trifluoro-1-propen-1-yl]oxy]phenyl]methyl]-N-(2-propen-1-yloxy)-1H-pyrazole-4-carboxamide] was tested. Which “Test A rating (100 = 100% disease control, 0 = no disease control relative to the controls)” value did it give?
The value was 100%.

`CCO/C(=C\Oc1ccc(Cn2cc(COCC3CC3)cn2)c(F)c1)C(F)(F)F` [Compound 68] was tested. Which “Test A rating (100 = 100% disease control, 0 = no disease control relative to the controls)” value did it give?
Its value is 100%.

How did the “Test A rating (100 = 100% disease control, 0 = no disease control relative to the controls)” value turn out when `CCO/C(=C\Oc1ccc(Cn2cc(COC(=O)OC)cn2)c(F)c1F)C(F)(F)F` [Compound 69] was run?
The value was 100%.

`CCO/C(=C\Oc1ccc(Cn2cc(COC(=O)CC)cn2)c(F)c1F)C(F)(F)F` [Compound 70] was tested. Which “Test A rating (100 = 100% disease control, 0 = no disease control relative to the controls)” value did it give?
The value was 100%.

With `CCO/C(=C\Oc1ccc(Cn2cc(COC(=O)C3CC3)cn2)c(F)c1F)C(F)(F)F` [Compound 71] as the compound, how does the “Test A rating (100 = 100% disease control, 0 = no disease control relative to the controls)” value read?
The value was 100%.

Which “Test A rating (100 = 100% disease control, 0 = no disease control relative to the controls)” value does the source give for `CCO/C(=C\Oc1ccc(Cn2cc(COC(=O)C(C)(C)C)cn2)c(F)c1F)C(F)(F)F` [Compound 72] here?
The value was 100%.

Which “Test A rating (100 = 100% disease control, 0 = no disease control relative to the controls)” value does the source give for `CCO/C(=C\Oc1ccc(Cn2cc(COC(=O)C(C)(C)C)cn2)c(F)c1)C(F)(F)F` [Compound 73] here?
The value was 100%.

For `CCO/C(=C\Oc1ccc(Cn2cc(COC(=O)COC)cn2)c(F)c1F)C(F)(F)F` [Compound 74], which “Test A rating (100 = 100% disease control, 0 = no disease control relative to the controls)” value is on record?
Its value is 100%.

With `CCO/C(=C\Oc1ccc(Cn2cc(COC(=O)COC)cn2)c(F)c1)C(F)(F)F` [Compound 75] as the compound, how does the “Test A rating (100 = 100% disease control, 0 = no disease control relative to the controls)” value read?
Its value is 100%.

`CCO/C(=C\Oc1ccc(Cn2cc(COC(=O)C3CC3)cn2)c(F)c1)C(F)(F)F` [Compound 76] was tested. Which “Test A rating (100 = 100% disease control, 0 = no disease control relative to the controls)” value did it give?
The value was 100%.

Which “Test A rating (100 = 100% disease control, 0 = no disease control relative to the controls)” value does the source give for `CCO/C(=C\Oc1ccc(Cn2cc(COC(=O)CC)cn2)c(F)c1)C(F)(F)F` [Compound 77] here?
Its value is 100%.

`CCO/C(=C\Oc1ccc(Cn2cc(C(=O)NOCC#N)cn2)c(F)c1F)C(F)(F)F` [Compound 78] was tested. Which “Test A rating (100 = 100% disease control, 0 = no disease control relative to the controls)” value did it give?
The value was 100%.

Same assay, conditions: rate 10 ppm, read-out: Test A rating (100 = 100% disease control, 0 = no disease control relative to the controls)

Which pest or weed control at 10 ppm does the source give for `O=C(OCc1cnn(Cc2ccc(OCC3(C(F)(F)F)OCCO3)cc2)c1)C1CCCC1` [Compound 4, [1-[[4-[[2-(trifluoromethyl)-1,3-dioxolan-2-yl]methoxy]phenyl]methyl]-1H-pyrazol-4-yl]methyl cyclopentanecarboxylate] here?
Its pest or weed control at 10 ppm is 90%.

With `CCOC(=S)c1cnn(Cc2ccc(O/C=C(\OCC)C(F)(F)F)cc2)c1` [Compound 7, O-ethyl 1-[[4-[[(1Z)-2-ethoxy-3,3,3-trifluoro-1-propen-1-yl]oxy]phenyl]methyl]-1H-pyrazole-4-carbothioate] as the compound, how does the pest or weed control at 10 ppm read?
Its pest or weed control at 10 ppm is 100%.

For `CCO/C(=C\Oc1ccc(Cn2cc(COC(=O)N(C)OC)cn2)cc1)C(F)(F)F` [Compound 18, (Z)-(1-(4-((2-ethoxy-3,3,3-trifluoroprop-1-en-1-yl)oxy)benzyl)-1H-pyrazol-4-yl)methyl methoxy(methyl)carbamate], which pest or weed control at 10 ppm is on record?
The pest or weed control at 10 ppm was 100%.

For `CCO/C(=C\Oc1ccc(Cn2cc(COC(=O)CC)cn2)cc1)C(F)(F)F` [Compound 21, [1-[[4-[[(1Z)-2-ethoxy-3,3,3-trifluoro-1-propen-1-yl]oxy]phenyl]methyl]-1H-pyrazol-4-yl]methyl propanoate], which pest or weed control at 10 ppm is on record?
The pest or weed control at 10 ppm was 100%.

`CCO/C(=C\Oc1ccc(Cn2cc(COC(C)=O)cn2)cc1)C(F)(F)F` [Compound 22, [1-[[4-[[(1Z)-2-ethoxy-3,3,3-trifluoro-1-propen-1-yl]oxy]phenyl]methyl]-1H-pyrazol-4-yl]methyl acetate] was tested. Which pest or weed control at 10 ppm did it give?
Its pest or weed control at 10 ppm is 100%.

`CCO/C(=C\Oc1ccc(Cn2cc(COC(=O)COC)cn2)cc1)C(F)(F)F` [Compound 23, [1-[[4-[[(1Z)-2-ethoxy-3,3,3-trifluoro-1-propen-1-yl]oxy]phenyl]methyl]-1H-pyrazol-4-yl]methyl 2-methoxyacetate] was tested. Which pest or weed control at 10 ppm did it give?
The pest or weed control at 10 ppm was 100%.

How did the pest or weed control at 10 ppm turn out when `CCO/C(=C\Oc1ccc(Cn2cc(COC(=O)CC(C)C)cn2)cc1)C(F)(F)F` [Compound 27, [1-[[4-[[(1Z)-2-ethoxy-3,3,3-trifluoro-1-propen-1-yl]oxy]phenyl]methyl]-1H-pyrazol-4-yl]methyl 3-methylbutanoate] was run?
The pest or weed control at 10 ppm was 100%.

`CCCC(C)C(=O)OCc1cnn(Cc2ccc(O/C=C(\OCC)C(F)(F)F)cc2)c1` (stereo not shown) [Compound 30, [1-[[4-[[(1Z)-2-ethoxy-3,3,3-trifluoro-1-propen-1-yl]oxy]phenyl]methyl]-1H-pyrazol-4-yl]methyl 2-methylpentanoate] was tested. Which pest or weed control at 10 ppm did it give?
Its pest or weed control at 10 ppm is 100%.

Which pest or weed control at 10 ppm does the source give for `CCO/C(=C\Oc1ccc(Cn2cc(C(=O)NOCc3ccccc3)cn2)cc1)C(F)(F)F` [Compound 31, 1-[[4-[[(1Z)-2-ethoxy-3,3,3-trifluoro-1-propen-1-yl]oxy]phenyl]methyl]-N-(phenylmethoxy)-1H-pyrazole-4-carboxamide] here?
Its pest or weed control at 10 ppm is 100%.

For `CCO/C(=C\Oc1ccc(Cn2cc(COC(=O)CC(F)(F)F)cn2)cc1)C(F)(F)F` [Compound 35, [1-[[4-[[(1Z)-2-ethoxy-3,3,3-trifluoro-1-propen-1-yl]oxy]phenyl]methyl]-1H-pyrazol-4-yl]methyl 3,3,3-trifluoropropanoate], which pest or weed control at 10 ppm is on record?
Its pest or weed control at 10 ppm is 100%.

`C=CCON=C(OCC)c1cnn(Cc2ccc(O/C=C(\OCC)C(F)(F)F)cc2)c1` [Compound 40, ethyl 1-[[4-[[(1Z)-2-ethoxy-3,3,3-trifluoro-1-propen-1-yl]oxy]phenyl]methyl]-N-(2-propen-1-yloxy)-1H-pyrazole-4-carboximidate] was tested. Which pest or weed control at 10 ppm did it give?
The pest or weed control at 10 ppm was 100%.

With `CCO/C(=C\Oc1ccc(Cn2cc(C(=O)NOCC(F)(F)F)cn2)cc1)C(F)(F)F` [Compound 45, 1-[[4-[[(1Z)-2-ethoxy-3,3,3-trifluoro-1-propen-1-yl]oxy]phenyl]methyl]-N-(2,2,2-trifluoroethoxy)-1H-pyrazole-4-carboxamide] as the compound, how does the pest or weed control at 10 ppm read?
The pest or weed control at 10 ppm was 100%.

Which pest or weed control at 10 ppm does the source give for `CCO/C(=C\Oc1ccc(Cn2cc(COC(=O)C(C)C)cn2)cc1)C(F)(F)F` [Compound 46, [1-[[4-[[(1Z)-2-ethoxy-3,3,3-trifluoro-1-propen-1-yl]oxy]phenyl]methyl]-1H-pyrazol-4-yl]methyl 2-methylpropanoate] here?
The pest or weed control at 10 ppm was 100%.

For `CCO/C(=C\Oc1ccc(Cn2cc(COC(=O)C(C)(C)C)cn2)cc1)C(F)(F)F` [Compound 47, [1-[[4-[[(1Z)-2-ethoxy-3,3,3-trifluoro-1-propen-1-yl]oxy]phenyl]methyl]-1H-pyrazol-4-yl]methyl 2,2-dimethylpropanoate], which pest or weed control at 10 ppm is on record?
Its pest or weed control at 10 ppm is 100%.

How did the pest or weed control at 10 ppm turn out when `CCO/C(=C\Oc1ccc(Cn2cc(COC(=O)CCSC)cn2)cc1)C(F)(F)F` [Compound 50, [1-[[4-[[(1Z)-2-ethoxy-3,3,3-trifluoro-1-propen-1-yl]oxy]phenyl]methyl]-1H-pyrazol-4-yl]methyl 3-(methylthio)propanoate] was run?
Its pest or weed control at 10 ppm is 100%.

How did the pest or weed control at 10 ppm turn out when `CCOC(=O)C(OC(C)=O)c1cnn(Cc2ccc(O/C=C(\OCC)C(F)(F)F)cc2)c1` (stereo not drawn) [Compound 54, ethyl α-(acetyloxy)-1-[[4-[[(1Z)-2-ethoxy-3,3,3-trifluoro-1-propen-1-yl]oxy]phenyl]methyl]-1H-pyrazole-4-acetate] was run?
The pest or weed control at 10 ppm was 100%.

Same assay, conditions: rate 50 ppm, read-out: Test A rating (100 = 100% disease control, 0 = no disease control relative to the controls)

How did the pest or weed control at 50 ppm turn out when `CCO/C(=C\Oc1ccc(Cn2cc(CC(=O)N(C)OC)cn2)cc1)C(F)(F)F` [Compound 5, 1-[[4-[[(1Z)-2-ethoxy-3,3,3-trifluoro-1-propen-1-yl]oxy]phenyl]methyl]-N-methoxy-N-methyl-1H-pyrazole-4-acetamide] was run?
The pest or weed control at 50 ppm was 94%.
